According to PubChem BioAssay AID588529 (Broad Institute, 2011):

Test system: Candida albicans CaCi-2 growth, Alamar Blue fluorescence, 48 h
Assay: single-agent growth inhibition of Candida albicans, dose response, CaCi-2 isolate, Alamar Blue, cherry-pick (AID 588529)

SMILES | AC50
C(C#CCCCCCCCCC[n+]1ccccc1)#CCCCCCCCCC[n+]1ccccc1 | 16.2 µM
Oc1ccc(N=Nc2ccc3c(c2)OCCO3)c2cccnc12 | 3.55 µM
Oc1c(CN2CCN(c3ccccc3)CC2)cc(Br)c2cccnc12 | 2.38 µM
O=Nc1c(-c2cccc([N+](=O)[O-])c2)nc2ncccn12 | 5.11 µM
C=CCNC(=S)N/N=C(\C)c1ccccn1 | 13.8 µM
CCCCC(=O)NC(c1ccc(N(CC)CC)cc1)c1ccc2cccnc2c1O (centres undefined) | 3.74 µM
Oc1ccc(N=Nc2ccc3c(c2)OCCO3)c2ncccc12 | 2.59 µM
Oc1c(C(Nc2nccs2)c2ccc(C(F)(F)F)cc2)ccc2cccnc12 (centres undefined) | 3.73 µM
CCOc1ccc(N=Nc2ccc(O)c3ncccc23)cc1 | 1.4 µM
O=C(N/N=C/c1cc2c3c(c1O)CCCN3CCC2)c1ccccc1O | 1.75 µM
O=c1ccc(N=Nc2ccccc2)ccc1O | 4.76 µM
CCN(CC)S(=O)(=O)c1cc(OC)ccc1N=Nc1ccc(O)c2ncccc12 | 10.6 µM
O=[N+]([O-])c1ccc(O)c(/C=N/Nc2ccc(Cl)nn2)c1 | 5.11 µM
O=Cc1ccc(O)c2ncccc12 | 3.85 µM
Oc1c(C(c2ccc(Cl)cc2)N2CCCC2)cc(Cl)c2cccnc12 (centres undefined) | 1.51 µM
CCCCC(=O)NC(c1ccco1)c1cc(Cl)c2cccnc2c1O (centres undefined) | 6.22 µM
Oc1c(C(Nc2nc3ccccc3s2)c2ccco2)ccc2cccnc12 (centres undefined) | 3.26 µM

SMILES | AC50
O=C(Oc1c(Cl)cc(Cl)c2cccnc12)c1cccs1 | 1.49 µM
O=C(Oc1c(Cl)cc(Cl)c2cccnc12)c1ccco1 | 0.812 µM
CCOC(=O)N1C(=O)C2(CCCCC2)N(c2ccc(C)cc2)C1=S | 0.102 µM
C/C(=N\NC(=O)c1cc2ccccc2cc1O)c1ccccn1 | 5 µM
COc1ccc(C)cc1N=Nc1ccc(O)c2ncccc12 | 1.71 µM
COc1cccc(N=Nc2ccc3cccnc3c2O)c1 | 1.52 µM
CN1CCN(C(c2ccc(C(F)(F)F)cc2)c2cc(Cl)c3cccnc3c2O)CC1 (centres undefined) | 2.71 µM
CN1CCN(C(c2ccc(C(F)(F)F)cc2)c2ccc3cccnc3c2O)CC1 (centres undefined) | 5.05 µM
O=[N+]([O-])c1cc(CN2CCN(c3ccccc3)CC2)c(O)c2ncccc12 | 5.39 µM
Cc1cc(NC(c2ccc(Cl)cc2)c2ccc3cccnc3c2O)no1 (centres undefined) | 4.71 µM
CCCCC(=O)NC(c1ccc(Cl)cc1)c1ccc2cccnc2c1O (centres undefined) | 5.11 µM
COc1cccc(N=Nc2ccc(O)c3ncccc23)c1 | 0.39 µM
CCCCCCC[n+]1ccc(-c2cc[n+](CCCCCCC)cc2)cc1 | 3.76 µM
COc1cccc(/C=N/Nc2ncnc3scc(-c4ccccc4)c23)c1O | 5.52 µM
O=C(N/N=C/c1c(O)ccc2ccccc12)c1cccc(C(F)(F)F)c1 | 1.45 µM
Cc1ccc(C(=O)c2coc3c2C(=O)C(=O)c2ccccc2-3)cc1 | 9.38 µM
Oc1c(CN2CCN(c3ccc(F)cc3)CC2)cc(Cl)c2cccnc12 | 3.73 µM
